# Assay results taken from paper PMC7838080, “Structural and Biochemical Insights Into Two BAHD Acyltransferases (AtSHT and AtSDT) Involved in Phenolamide Biosynthesis” (Frontiers in Plant Science, 2021).
# What was measured:
# AtSHT [1] = molecular target: T1, AtSHT (Arabidopsis thaliana, UniProt O64470); assay: LC-MS product assay; format: biochemical; details: 60 µM acyl donor, 200 µM spermidine, pH 7.5, 30 °C, 30 min
# T1 construct: gene SHT; wild type in pET28a (NdeI/XhoI), E. coli BL21(DE3), Ni-NTA and gel filtration; model residues 1-451
# T1 sequence (O64470 1-451): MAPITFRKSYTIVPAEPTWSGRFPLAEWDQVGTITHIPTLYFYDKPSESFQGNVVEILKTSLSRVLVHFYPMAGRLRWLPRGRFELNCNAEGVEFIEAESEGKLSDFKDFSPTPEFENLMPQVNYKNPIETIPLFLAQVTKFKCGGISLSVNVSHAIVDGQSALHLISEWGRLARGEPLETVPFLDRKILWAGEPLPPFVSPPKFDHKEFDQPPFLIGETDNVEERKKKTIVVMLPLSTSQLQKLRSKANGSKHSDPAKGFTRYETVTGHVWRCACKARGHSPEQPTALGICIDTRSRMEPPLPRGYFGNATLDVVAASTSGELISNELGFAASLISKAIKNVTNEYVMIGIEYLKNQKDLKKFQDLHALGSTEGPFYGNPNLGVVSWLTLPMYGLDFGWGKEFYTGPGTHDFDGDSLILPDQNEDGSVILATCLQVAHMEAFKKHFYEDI
# AtSDT [2] = molecular target: T2, AtSDT (Arabidopsis thaliana, UniProt O80467); assay: LC-MS product assay; format: biochemical; details: 60 µM acyl donor, 200 µM spermidine, pH 7.5, 30 °C, 30 min
# T2 construct: gene SDT; wild type in pET28a (NdeI/XhoI), E. coli BL21(DE3), Ni-NTA and gel filtration
# T2 sequence (O80467 1-451): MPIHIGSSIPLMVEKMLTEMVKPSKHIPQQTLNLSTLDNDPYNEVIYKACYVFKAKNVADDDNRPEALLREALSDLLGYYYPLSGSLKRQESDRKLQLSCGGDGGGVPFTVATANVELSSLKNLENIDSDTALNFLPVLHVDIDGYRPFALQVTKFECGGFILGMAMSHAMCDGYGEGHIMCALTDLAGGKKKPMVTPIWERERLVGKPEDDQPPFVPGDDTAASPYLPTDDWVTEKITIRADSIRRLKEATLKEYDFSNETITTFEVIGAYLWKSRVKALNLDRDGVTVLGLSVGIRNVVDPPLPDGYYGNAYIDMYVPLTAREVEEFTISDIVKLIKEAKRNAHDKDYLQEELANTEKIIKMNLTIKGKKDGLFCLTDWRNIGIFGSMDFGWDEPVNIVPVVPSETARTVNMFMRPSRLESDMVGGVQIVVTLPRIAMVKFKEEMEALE
# AtSHT [3] = molecular target: T1, AtSHT; assay: X-ray crystal structure; format: binding; details: co-crystallised with spermidine and CoA; 2.3 Å; active site near His155
# NP_190301.2 = molecular target: T3, NP_190301.2 (Arabidopsis thaliana, UniProt F4JAD2); assay: HPLC-MS product assay; format: biochemical; details: 200 µM putrescine, pH 7.5, 30 °C, 30 min
# T3 construct: gene At3g47170; wild type in pET28a (NdeI/XhoI), E. coli BL21(DE3), Ni-NTA and gel filtration
# T3 sequence (F4JAD2 1-468): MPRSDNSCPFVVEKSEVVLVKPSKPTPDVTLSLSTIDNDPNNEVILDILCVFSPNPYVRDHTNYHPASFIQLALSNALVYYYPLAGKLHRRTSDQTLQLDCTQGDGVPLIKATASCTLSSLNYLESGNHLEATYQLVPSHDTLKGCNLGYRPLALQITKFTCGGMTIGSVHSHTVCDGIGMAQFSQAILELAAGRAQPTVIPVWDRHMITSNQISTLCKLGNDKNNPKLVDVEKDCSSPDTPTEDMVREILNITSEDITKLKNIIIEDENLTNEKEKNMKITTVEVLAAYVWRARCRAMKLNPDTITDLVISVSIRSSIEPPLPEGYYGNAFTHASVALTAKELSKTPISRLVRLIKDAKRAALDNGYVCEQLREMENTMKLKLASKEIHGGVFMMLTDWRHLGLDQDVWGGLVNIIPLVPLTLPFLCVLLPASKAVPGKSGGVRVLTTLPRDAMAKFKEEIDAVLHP
# AtSDT [4] = molecular target: T2, AtSDT; assay: LC-MS product assay; X-ray crystal structure; format: biochemical; details: 200 µM spermidine, 60 µM sinapoyl-CoA, pH 7.5, 30 °C, 30 min; ligand in crystal only possible electron density, pose docked
# AtSHT [5] = molecular target: T1, AtSHT; assay: LC-MS product assay; X-ray crystal structure; format: biochemical; details: 200 µM spermidine, 60 µM feruloyl-CoA, pH 7.5, 30 °C, 30 min; ligand in crystal only possible electron density, pose docked
# OAO95042.1 = molecular target: T4, OAO95042.1 (Arabidopsis thaliana, UniProt F4K5C5); assay: HPLC-MS product assay; format: biochemical; details: 200 µM putrescine, 60 µM caffeoyl-CoA, pH 7.5, 30 °C, 30 min
# T4 construct: gene At5g07080; wild type in pET28a (NdeI/XhoI), E. coli BL21(DE3), Ni-NTA and gel filtration
# T4 sequence (F4K5C5 1-450): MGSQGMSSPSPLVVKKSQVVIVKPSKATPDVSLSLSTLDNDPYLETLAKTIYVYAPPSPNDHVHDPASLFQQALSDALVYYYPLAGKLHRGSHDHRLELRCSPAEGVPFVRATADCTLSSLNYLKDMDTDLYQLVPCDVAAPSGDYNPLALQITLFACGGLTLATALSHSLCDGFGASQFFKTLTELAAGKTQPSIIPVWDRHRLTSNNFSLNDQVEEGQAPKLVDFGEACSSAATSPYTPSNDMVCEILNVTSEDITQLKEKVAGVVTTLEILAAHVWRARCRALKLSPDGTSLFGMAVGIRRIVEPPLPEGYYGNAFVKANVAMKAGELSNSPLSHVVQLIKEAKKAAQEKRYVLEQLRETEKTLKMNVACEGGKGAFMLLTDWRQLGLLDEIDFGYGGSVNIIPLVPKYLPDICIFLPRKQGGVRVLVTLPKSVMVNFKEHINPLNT
structure (smiles),measurement,setting,value
COc1cc(/C=C/C(=O)SCCNC(=O)CCNC(=O)[C@H](O)C(C)(C)COP(=O)(O)OP(=O)(O)OC[C@H]2O[C@@H](n3cnc4c(N)ncnc43)[C@H](O)[C@@H]2OP(=O)(O)O)ccc1O [feruloyl-CoA],LC-MS product assay,AtSHT [1],wild-type AtSHT can efficiently convert spermidine and feruloyl-CoA to monoferuloyl spermidine
COc1cc(/C=C/C(=O)SCCNC(=O)CCNC(=O)[C@H](O)C(C)(C)COP(=O)(O)OP(=O)(O)OC[C@H]2O[C@@H](n3cnc4c(N)ncnc43)[C@H](O)[C@@H]2OP(=O)(O)O)cc(OC)c1O [sinapoyl-CoA],LC-MS product assay,AtSDT [2],wild-type AtSDT can efficiently couple spermidine with sinapoyl CoA to yield monosinapoyl
CC(C)(COP(=O)(O)OP(=O)(O)OC[C@H]1O[C@@H](n2cnc3c(N)ncnc32)[C@H](O)[C@@H]1OP(=O)(O)O)[C@@H](O)C(=O)NCCC(=O)NCCS [CoA-HS],X-ray crystal structure,AtSHT [3],The extra density near His155 was determined as CoA-HS
CC(C)(COP(=O)(O)OP(=O)(O)OC[C@H]1O[C@@H](n2cnc3c(N)ncnc32)[C@H](O)[C@@H]1OP(=O)(O)O)[C@@H](O)C(=O)NCCC(=O)NCCSC(=O)/C=C/c1ccc(O)c(O)c1 [caffeoyl-CoA],HPLC-MS product assay,NP_190301.2; 60 µM acyl donor,encoded enzymes that could efficiently convert putrescine and caffeoyl-CoA to di-caffeoyl putrescine
NCCCCNCCCN [spermidine],LC-MS product assay; X-ray crystal structure,AtSDT [4],wild-type AtSDT can efficiently couple spermidine with sinapoyl CoA to yield monosinapoyl
same,LC-MS product assay; X-ray crystal structure,AtSHT [5],wild-type AtSHT can efficiently convert spermidine and feruloyl-CoA to monoferuloyl spermidine
NCCCCN [putrescine],HPLC-MS product assay,OAO95042.1,encoded enzymes that could efficiently convert putrescine and caffeoyl-CoA to di-caffeoyl putrescine
same,HPLC-MS product assay,NP_190301.2; 60 µM caffeoyl-CoA,encoded enzymes that could efficiently convert putrescine and caffeoyl-CoA to di-caffeoyl putrescine
